Experiments:
[1] = tested on: SARS-CoV-2 isolate USA-WA1/2020
SARS-CoV-2 Nsp14 MTase = SARS-CoV-2 Nsp14 MTase (Severe acute respiratory syndrome coronavirus 2, UniProt P0DTD1); assay type: biochemical
A549/ACE2/TMPRSS2 cells = assay: Cell viability assay; assay type: cell-based
panel of 10 human MTases = assay: Human MTase screening, panel as a whole; assay type: biochemical; conditions: 10 μM

Structure (SMILES): Nc1ncnc2c1ncn2[C@@H]1O[C@H](C[C@@H](N)CC[C@H](N)C(=O)O)[C@@H](O)[C@H]1O [sinefungin, reference compound]
- antiviral activity (in words) [1]: failed to show any activity

Structure (SMILES): Nc1ncnc2c1ncn2[C@@H]1O[C@H](CNS(=O)(=O)c2ccc3nc(Cl)ccc3c2)[C@@H](O)[C@H]1O [Compound 5]
- fold reduction in inhibitory activity (SARS-CoV-2 Nsp14 MTase): 7 fold

Structure (SMILES): CC(=O)O[C@@H]1[C@H](OC(C)=O)[C@@H](CNS(=O)(=O)c2ccc3ccccc3c2)O[C@H]1n1cnc2c(N)ncnc21 [Compound 8]
- cytotoxicity at 100 μM (in words) (A549/ACE2/TMPRSS2 cells): minimal cytotoxicity

Structure (SMILES): CC(=O)Nc1ncnc2c1ncn2[C@@H]1O[C@H](CNS(=O)(=O)c2ccc3ccccc3c2)[C@@H](OC(C)=O)[C@H]1OC(C)=O [Compound 9]
- cytotoxicity at 100 μM (in words) (A549/ACE2/TMPRSS2 cells): minimal cytotoxicity

Structure (SMILES): Nc1ncnc2c1ncn2[C@@H]1O[C@H](CNS(=O)(=O)c2ccc3ccccc3c2)[C@@H](O)[C@H]1O [Compound 3]
- fold more active than compound 1 (SARS-CoV-2 Nsp14 MTase): > 150 fold
- inhibition of the set of human MTases (in words) (panel of 10 human MTases): minimal inhibition

Structure (SMILES): Nc1ncnn2c([C@@H]3O[C@H](CNS(=O)(=O)c4ccc5ccccc5c4)[C@@H](O)[C@H]3O)ccc12 [Compound 10]
- therapeutic index (TI = CC50/EC50) ([1]; A549 AT cells): greater than 139
